In the supplement of paper PMC10307832:

Assays:
Test in all cases: relative viability (nuclei count vs DMSO), 5 days (fraction); higher = more cells survive
[1] = compound: O=C(CCCCCCNC(=O)c1cnc(N(c2ccccc2)c2ccccc2)nc1)NO [Ricolinostat] + CC(C)C[C@H](NC(=O)[C@H](Cc1ccccc1)NC(=O)c1cnccn1)B(O)O [Bortezomib] (partner 0.002 µM)
How it was run: (§1)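 Lung cancer cell lines in 1536-well plates were dosed by pin tool the day after seeding, either with one drug alone or with a fixed anchor-drug dose plus five library-drug doses (not always all listed) in √10 steps. After 5 days, cells were fixed and their nuclei stained in one step (final 0.05% Triton X-100, 1% formaldehyde, 1 ug/ml Hoechst), then counted on 4× images. Relative viability is the nuclei count in treated wells divided by that in vehicle wells. Values are medians of duplicate plates.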

[2] = compound: C1=CC=C(C(=C1)C2=CC=C(C=C2)C3=CSC4=C3C(=C(C(=O)N4)C#N)O)O + COc1cccc2cc(-c3nc([C@H]4CC[C@H](C(=O)O)CC4)n4ncnc(N)c34)[nH]c12 [OSI-027] (partner 0.5 µM)
How it was run: as §1

[3] = compound: C1=CC=C(C(=C1)C2=CC=C(C=C2)C3=CSC4=C3C(=C(C(=O)N4)C#N)O)O + N=C(N)NC(=N)NCCc1ccccc1 [Phenformin] (partner 250 µM)
How it was run: as §1

[4] = compound: CC1=CN2C(=O)C=C(N=C2C(=C1)C(C)NC3=CC=CC=C3)N4CCOCC4 [TGX 221] + CC(C)C[C@H](NC(=O)[C@H](Cc1ccccc1)NC(=O)c1cnccn1)B(O)O [Bortezomib] (partner 0.002 µM)
How it was run: as §1

Cell Line: LOU-NH91
- relative viability ([1]; first compound 0.253 µM): 0.502
- relative viability ([1]; first compound 0.8 µM): 0.497
- relative viability ([1]; first compound 2.53 µM): 0.446
- relative viability ([2]; first compound 0.08 µM): 0.765
- relative viability ([2]; first compound 0.253 µM): 0.721
- relative viability ([2]; first compound 0.8 µM): 0.71
- relative viability ([2]; first compound 2.53 µM): 0.727
- relative viability ([2]; first compound 8 µM): 0.69
- relative viability ([3]; first compound 0.08 µM): 0.716
- relative viability ([3]; first compound 0.253 µM): 0.726
- relative viability ([3]; first compound 0.8 µM): 0.655
- relative viability ([3]; first compound 2.53 µM): 0.616
- relative viability ([3]; first compound 8 µM): 0.63
- relative viability ([4]; first compound 0.08 µM): 0.492
- relative viability ([4]; first compound 0.253 µM): 0.52
- relative viability ([4]; first compound 0.8 µM): 0.514
- relative viability ([4]; first compound 2.53 µM): 0.381
- relative viability ([4]; first compound 8 µM): 0.51

Cell Line: NCI-H3122
- relative viability ([1]; first compound 0.08 µM): 0.914
- relative viability ([1]; first compound 0.253 µM): 1.08
- relative viability ([1]; first compound 0.8 µM): 0.987
- relative viability ([1]; first compound 2.53 µM): 1.09
- relative viability ([2]; first compound 0.08 µM): 0.836
- relative viability ([2]; first compound 0.253 µM): 1.07
- relative viability ([2]; first compound 0.8 µM): 1.09
- relative viability ([2]; first compound 2.53 µM): 1.33
- relative viability ([2]; first compound 8 µM): 0.774
- relative viability ([3]; first compound 0.08 µM): 0.352
- relative viability ([3]; first compound 0.253 µM): 0.364
- relative viability ([3]; first compound 0.8 µM): 0.432
- relative viability ([3]; first compound 2.53 µM): 0.387
- relative viability ([3]; first compound 8 µM): 0.37
- relative viability ([4]; first compound 0.08 µM): 1.02
- relative viability ([4]; first compound 0.253 µM): 1.04
- relative viability ([4]; first compound 0.8 µM): 0.969
- relative viability ([4]; first compound 2.53 µM): 0.941
- relative viability ([4]; first compound 8 µM): 1.02

Cell Line: HOP-62
- relative viability ([1]; first compound 0.08 µM): 0.501
- relative viability ([1]; first compound 0.253 µM): 0.595
- relative viability ([1]; first compound 0.8 µM): 0.799
- relative viability ([1]; first compound 2.53 µM): 0.532
- relative viability ([2]; first compound 0.08 µM): 0.795
- relative viability ([2]; first compound 0.253 µM): 0.728
- relative viability ([2]; first compound 0.8 µM): 0.591
- relative viability ([2]; first compound 2.53 µM): 0.958
- relative viability ([2]; first compound 8 µM): 0.756
- relative viability ([3]; first compound 0.08 µM): 0.57
- relative viability ([3]; first compound 0.253 µM): 0.854
- relative viability ([3]; first compound 0.8 µM): 0.565
- relative viability ([3]; first compound 2.53 µM): 0.679
- relative viability ([3]; first compound 8 µM): 0.359
- relative viability ([4]; first compound 0.08 µM): 0.605
- relative viability ([4]; first compound 0.253 µM): 0.85
- relative viability ([4]; first compound 0.8 µM): 0.788
- relative viability ([4]; first compound 2.53 µM): 0.847
- relative viability ([4]; first compound 8 µM): 0.93

Cell Line: LCLC-103H
- relative viability ([1]; first compound 0.08 µM): 0.79
- relative viability ([1]; first compound 0.253 µM): 0.88
- relative viability ([1]; first compound 0.8 µM): 1.09
- relative viability ([1]; first compound 2.53 µM): 0.927
- relative viability ([2]; first compound 0.08 µM): 0.372
- relative viability ([2]; first compound 0.253 µM): 0.39
- relative viability ([2]; first compound 0.8 µM): 0.519
- relative viability ([2]; first compound 2.53 µM): 0.469
- relative viability ([2]; first compound 8 µM): 0.434
- relative viability ([3]; first compound 0.08 µM): 0.265
- relative viability ([3]; first compound 0.253 µM): 0.342
- relative viability ([3]; first compound 0.8 µM): 0.374
- relative viability ([3]; first compound 2.53 µM): 0.354
- relative viability ([3]; first compound 8 µM): 0.305
- relative viability ([4]; first compound 0.08 µM): 0.999
- relative viability ([4]; first compound 0.253 µM): 1.12
- relative viability ([4]; first compound 0.8 µM): 0.981
- relative viability ([4]; first compound 2.53 µM): 1.01
- relative viability ([4]; first compound 8 µM): 1.06

Cell Line: LU99A
- relative viability ([1]; first compound 0.08 µM): 1.02
- relative viability ([1]; first compound 0.253 µM): 0.952
- relative viability ([1]; first compound 0.8 µM): 0.976
- relative viability ([1]; first compound 2.53 µM): 0.745
- relative viability ([2]; first compound 0.08 µM): 0.3
- relative viability ([2]; first compound 0.253 µM): 0.263
- relative viability ([2]; first compound 0.8 µM): 0.27
- relative viability ([2]; first compound 2.53 µM): 0.345
- relative viability ([2]; first compound 8 µM): 0.301
- relative viability ([3]; first compound 0.08 µM): 0.765
- relative viability ([3]; first compound 0.253 µM): 0.838
- relative viability ([3]; first compound 0.8 µM): 0.769
- relative viability ([3]; first compound 2.53 µM): 0.891
- relative viability ([3]; first compound 8 µM): 0.896
- relative viability ([4]; first compound 0.08 µM): 1.06
- relative viability ([4]; first compound 0.253 µM): 0.887
- relative viability ([4]; first compound 0.8 µM): 1.04
- relative viability ([4]; first compound 2.53 µM): 1.04
- relative viability ([4]; first compound 8 µM): 1.09

Cell Line: HCC-44
- relative viability ([1]; first compound 0.08 µM): 0.904
- relative viability ([1]; first compound 0.253 µM): 0.887
- relative viability ([1]; first compound 0.8 µM): 0.904
- relative viability ([1]; first compound 2.53 µM): 0.663
- relative viability ([2]; first compound 0.253 µM): 0.588
- relative viability ([2]; first compound 0.8 µM): 0.518
- relative viability ([2]; first compound 2.53 µM): 0.558
- relative viability ([2]; first compound 8 µM): 0.523
- relative viability ([3]; first compound 0.08 µM): 0.166
- relative viability ([3]; first compound 0.253 µM): 0.164
- relative viability ([3]; first compound 0.8 µM): 0.138
- relative viability ([3]; first compound 2.53 µM): 0.21
- relative viability ([3]; first compound 8 µM): 0.208
- relative viability ([4]; first compound 0.08 µM): 0.951
- relative viability ([4]; first compound 0.253 µM): 0.935
- relative viability ([4]; first compound 0.8 µM): 0.945
- relative viability ([4]; first compound 2.53 µM): 0.851
- relative viability ([4]; first compound 8 µM): 0.997

Cell Line: NCI-H2405
- relative viability ([1]; first compound 0.08 µM): 0.816
- relative viability ([1]; first compound 0.253 µM): 0.952
- relative viability ([1]; first compound 0.8 µM): 0.932
- relative viability ([1]; first compound 2.53 µM): 0.992
- relative viability ([2]; first compound 0.08 µM): 0.648
- relative viability ([2]; first compound 0.253 µM): 0.656
- relative viability ([2]; first compound 0.8 µM): 0.607
- relative viability ([2]; first compound 2.53 µM): 0.679
- relative viability ([2]; first compound 8 µM): 0.65
- relative viability ([3]; first compound 0.08 µM): 0.266
- relative viability ([3]; first compound 0.253 µM): 0.381
- relative viability ([3]; first compound 0.8 µM): 0.385
- relative viability ([3]; first compound 2.53 µM): 0.445
- relative viability ([3]; first compound 8 µM): 0.37
- relative viability ([4]; first compound 0.08 µM): 0.94
- relative viability ([4]; first compound 0.253 µM): 1.04
- relative viability ([4]; first compound 0.8 µM): 1.01
- relative viability ([4]; first compound 2.53 µM): 0.92
- relative viability ([4]; first compound 8 µM): 0.953

Cell Line: PC-14
- relative viability ([1]; first compound 0.08 µM): 0.812
- relative viability ([1]; first compound 0.253 µM): 0.844
- relative viability ([1]; first compound 0.8 µM): 0.872
- relative viability ([1]; first compound 2.53 µM): 0.692
- relative viability ([2]; first compound 0.08 µM): 0.924
- relative viability ([2]; first compound 0.253 µM): 0.986
- relative viability ([2]; first compound 0.8 µM): 0.874
- relative viability ([2]; first compound 2.53 µM): 0.978
- relative viability ([2]; first compound 8 µM): 0.46
- relative viability ([3]; first compound 0.08 µM): 0.489
- relative viability ([3]; first compound 0.253 µM): 0.676
- relative viability ([3]; first compound 0.8 µM): 0.561
- relative viability ([3]; first compound 2.53 µM): 0.555
- relative viability ([3]; first compound 8 µM): 0.355
- relative viability ([4]; first compound 0.08 µM): 0.895
- relative viability ([4]; first compound 0.253 µM): 0.89
- relative viability ([4]; first compound 0.8 µM): 0.828
- relative viability ([4]; first compound 2.53 µM): 0.804
- relative viability ([4]; first compound 8 µM): 0.874

Cell Line: COR-L23
- relative viability ([1]; first compound 0.08 µM): 0.919
- relative viability ([1]; first compound 0.253 µM): 0.894
- relative viability ([1]; first compound 0.8 µM): 0.951
- relative viability ([1]; first compound 2.53 µM): 0.464
- relative viability ([2]; first compound 0.08 µM): 0.614
- relative viability ([2]; first compound 0.253 µM): 0.715
- relative viability ([2]; first compound 0.8 µM): 0.534
- relative viability ([2]; first compound 2.53 µM): 1.11
- relative viability ([2]; first compound 8 µM): 0.723
- relative viability ([3]; first compound 0.08 µM): 0.383
- relative viability ([3]; first compound 0.253 µM): 0.467
- relative viability ([3]; first compound 0.8 µM): 0.464
- relative viability ([3]; first compound 2.53 µM): 0.467
- relative viability ([3]; first compound 8 µM): 0.372
- relative viability ([4]; first compound 0.08 µM): 0.876
- relative viability ([4]; first compound 0.253 µM): 0.964
- relative viability ([4]; first compound 0.8 µM): 0.928
- relative viability ([4]; first compound 2.53 µM): 1.06
- relative viability ([4]; first compound 8 µM): 1.01

Cell Line: NCI-H1666
- relative viability ([1]; first compound 0.08 µM): 0.598
- relative viability ([1]; first compound 0.253 µM): 0.97
- relative viability ([1]; first compound 0.8 µM): 0.724
- relative viability ([1]; first compound 2.53 µM): 0.579
- relative viability ([2]; first compound 0.08 µM): 0.804
- relative viability ([2]; first compound 0.253 µM): 1.09
- relative viability ([2]; first compound 0.8 µM): 0.901
- relative viability ([2]; first compound 2.53 µM): 0.777
- relative viability ([2]; first compound 8 µM): 0.745
- relative viability ([3]; first compound 0.08 µM): 0.578
- relative viability ([3]; first compound 0.253 µM): 0.739
- relative viability ([3]; first compound 0.8 µM): 0.547
- relative viability ([3]; first compound 2.53 µM): 0.532
- relative viability ([3]; first compound 8 µM): 0.484
- relative viability ([4]; first compound 0.08 µM): 0.771
- relative viability ([4]; first compound 0.253 µM): 0.723
- relative viability ([4]; first compound 0.8 µM): 0.872
- relative viability ([4]; first compound 2.53 µM): 0.648
- relative viability ([4]; first compound 8 µM): 0.764
